In data set [1] the test system is human embryonic kidney (HEK) 293 T cells.
The test system of data set [2] is pseudotyped Vesicular Stomatitis Virus (pHIV-VSVGP-Fluc). It counts as cell-based, Vesicular Stomatitis Virus (VSV). The note with it: read-out: Anti-VSV IC50.
The subject of data set [3] is pseudotyped EBOV virus (pHIV-EBOVGP-Fluc). Type of data set: cell-based, Ebola virus (EBOV). Particulars: for IC50: read-out: Anti-EBOV IC50.
The nature of the next data set: in vitro. Particulars: human.
A further data set relates to pHIV-MARVGP-Fluc virus. Details: species or system BALB/c mice. The note with it: mouse, ip.

Where a name gives a salt, the structure may show the parent alone.

With `O=C(O)CCC[C@@H]1[C@H]2CCCN3CCC[C@@H](CN1Cc1ccc(Cl)cc1)[C@@H]23` [8a, 12N-p-Chlorobenzyl matrinic acid dihydrochloride], the CC50 in data set [1] was found to be 200 µM. Also, the IC50 in data set [2] and in data set [3] was above 200 µM throughout.
`COC(=O)CCCC1C2CCCN3CCCC(CN1Cc1ccc(Cl)c(Cl)c1)C23.Cl.Cl` (stereo not drawn) [4a, methyl 12N-3′,4′-dichlorobenzyl sophoridinate dihydrochloride] yielded a CC50 in data set [1] of 22.2 µM. Besides, the IC50 (commonly the concentration that gives 50% inhibition) in data set [2] worked out at 7.52 µM. In data set [3], the SI was 8.28 and the IC50 is 2.68 µM.
Consider `COC(=O)CC1C2CCCN3CCCC(CN1S(=O)(=O)c1ccc(Cl)cc1)C23.Cl` (stereo not drawn) [10c, Methyl 12N-p-chlorobenzesulfonyl matrinic acetate hydrochloride], for which the CC50 in data set [1] is above 200 µM. Further, the IC50 is above 200 µM in data set [2] and 26.8 µM in data set [3]. For the same compound, the SI in data set [3] is listed as above 7.46.
The compound `O=C(O)CC1C2CCCN3CCCC(CN1Cc1ccc(Cl)cc1)C23` (stereo not drawn) [11a, 12N-p-Chlorobenzyl matrinic acetic acid] registered a CC50 in data set [1] above 200 µM. In addition, the IC50 in data set [2] and in data set [3] was above 200 µM throughout.
For the compound `COC(=O)CCC[C@@H]1[C@H]2CCCN3CCC[C@H](CN1C(=O)c1ccc(Cl)cc1)[C@@H]23` [4b, Methyl 12N-p-chlorobenzoyl sophoridinate], in data set [1], the CC50 was 200 µM. For the same compound, the IC50 in data set [2] was above 200 µM; in data set [3], 39.1 µM. In data set [3], the SI is 5.12.
For `COC(=O)CC1C2CCCN3CCCC(CN1Cc1ccc(Cl)c(Cl)c1)C23.Cl.Cl` (stereo not drawn) [10d, Methyl 12N-3′,4′-dichlorobenzyl matrinic acetate dihydrochloride], the CC50 in data set [1] was 153 µM. In data set [2], the IC50 turned out to be 123 µM. In addition, in data set [3], the SI is given as 15.3 and the IC50 is 10 µM.
Consider `O=C(O)CC1C2CCCN3CCCC(CN1CCCc1cc(Cl)cc(Cl)c1)C23` (stereo not drawn) [15f, 12N-3′,5′-Dichlorohydrocinnamyl matrinic acetic acid], for which, in data set [1], the CC50 is 83.3 µM.
In the case of `COC(=O)CCCC1C2CCCN3CCCC(CN1Cc1ccc(Cl)cc1)C23.Cl.Cl` (stereo not drawn) [7a, Methyl 12N-p-chlorobenzyl matrinate dihydrochloride], the CC50 in data set [1] was found to be 200 µM. The IC50 in data set [2] was 188 µM. In data set [3], the SI is reported as 7.87 and the IC50 was 25.4 µM.
Compound `COC(=O)CCCC1C2CCCN3CCCC(CN1S(=O)(=O)c1ccc(Cl)cc1)C23` (stereo not drawn) [4c, Methyl 12N-p-chlorobenzenesulfonyl sophoridinate] returned a CC50 in data set [1] above 22 µM. In data set [2], the 50% inhibitory concentration (IC50) was above 22 µM. Moreover, in data set [3], the SI was above 7.59 and the IC50 worked out at 2.9 µM.
`O=C(O)CC1C2CCCN3CCCC(CN1C(=O)c1ccc(Cl)cc1)C23` (stereo not drawn) [11b, 12N-p-Chlorobenzoyl matrinic acetic acid] came in with a CC50 in data set [1] above 200 µM. For the same compound, the IC50 in data set [2] and in data set [3] was above 200 µM in each case.
For `O=C(O)CCCC1C2CCCN3CCCC(CN1C(=O)c1ccc(Cl)cc1)C23` (stereo not drawn) [5b, 12N-p-Chlorobenzoyl sophoridinic acid], the CC50 in data set [1] was above 200 µM. Moreover, the IC50 in data set [2] and in data set [3] was above 200 µM each time.
For the compound `O=C(O)CCCC1C2CCCN3CCCC(CN1S(=O)(=O)c1ccc(Cl)cc1)C23` (stereo not drawn) [5c, 12N-p-Chlorobenzenesulfonyl sophoridinic acid], the IC50 in data set [2] is above 200 µM; in data set [3] it was 11.4 µM. The compound also yielded an SI in data set [3] of 17.5.
Consider `CN[C@H]1CC[C@@H](c2ccc(Cl)c(Cl)c2)c2ccccc21` [Sertraline, sertraline], for which the CC50 in the data set “in vitro” stood at 29.2 µM. Also, in the data set with pHIV-MARVGP-Fluc virus, the “reduction (bioluminescence), in vivo anti-MARV” value is “no activity at all”.

For the origin of these results see PMC6089848 (Acta Pharmaceutica Sinica. B, 2018).
